Measured values published in patent publication US7598244B2, “[1,2,4]triazolo[1,5,a]pyrimidin-2-ylurea derivative and use thereof” (Nippon Kayaku Kabushiki Kaisha, priority 2003, dated 2009).
Where two headings read alike, the source gives them in different places.

How the values were obtained:
[1] = system: mouse splenic cells; test: Inhibitory action on blastogenesis of mouse splenic cells ([3H]-thymidine incorporation); assay type: cell-based; settings: Mus musculus, Lymphocyte, 72 hours
Procedure: Inhibitory Action on Blastogenesis of Mouse Splenic Cells
The spleen was excised from each of BALB/c mice (Charles River Japan; female; 10-week-old), and it was allowed to pass through a mesh to obtain a single cell suspension. This single cell suspension was prepared to be 1.0×10^6 cells/ml. Thereafter, 200 μl of the suspension was fractionated into each well of a 96-well plate. Thereafter, as blastogenic stimulation, 5 μg/ml concanavalin A (Pharmacia) or 25 μg/ml Escherichia coli-derived lipopolysaccharide (DIFCO) was added to the well, and then, a solution containing a test compound with each different concentration was further added thereto at an amount of 20 μl/well. The obtained mixture was cultured at 37° C. for 72 hours in an incubator containing 5% carbon dioxide. Thereafter, a 1 μCi/10 μl/well [^3H]-thymidine solution was added thereto 64 hours after initiation of the culture. After completion of the culture (72 hours later), the cells were captured on a filter using a cell harvester, and they were then dried. Thereafter, scintillator was added thereto, and the radioactivity of [^3H]-thymidine incorporated into the cells was then measured using a liquid scintillation counter. The inhibition rate of the DNA synthesis was calculated using the aforementioned formula (3). Thereafter, the concentration of a test compound necessary for inhibition of 50% (IC50 value) was obtained.

[2] = system: BALB/c mice; test: Effect on mouse delayed-type hypersensitivity reaction (DTH reaction), swelling of the sole; assay type: in vivo; settings: Oral
Procedure: Effect on Mouse Delayed-Type Hypersensitivity Reaction (DTH Reaction)
1.0×10^5 sheep erythrocytes (Nippon Seibutsu Zairyo Center, Co., Ltd.) were administered to each of BALB/c mice (Charles River Japan, Inc.; female; 8-week-old) by intravenous injection for sensitization. From the day of administration of the sheep erythrocytes, a test compound was administered to the mouse. As a control, a 0.5% carboxymethyl cellulose (CMC)-Na solution and a normal saline solution used as solvents were administered to the same type of mouse via oral administration or intraperitoneal administration. Five days after the antigen sensitization, 1.0×10^8 sheep erythrocytes were subcutaneously injected into the sole of the mouse. 24 hours later, the thickness of the sole was measured. The value obtained by subtracting the mean value of the thicknesses of the soles of mice, to which a normal saline solution had been administered instead of the sheep erythrocytes, from the above measurement value, was defined as swelling of the sole generated as a result of the DTH reaction. The inhibition rate of the swelling of the sole caused by the DTH reaction was calculated using the following formula (5). The amount of the test compound necessary for inhibition of 50% (ED50 value) was obtained as the activity of the test compound to inhibit the DTH reaction. It is to be noted that cyclosporin A was used as a positive control.
[formula] • Eexp: Swelling of sole of mouse to which test compound was administered • Cexp: Swelling of sole of mouse to which solvent was administered

[3] = system: CD80; test: Expression of antigen-presenting and costimulatory molecules of human peripheral blood-derived dendritic cells: CD80; assay type: cell-based
Procedure: (§1) Action on Expression of Antigen-Presenting Molecules and Costimulatory Molecules of Human Peripheral Blood-Derived Dendritic Cells
(§2) The dendritic cells obtained by the same method as in Test Example 2 were suspended in RPMI 1640 comprising 10% FCS containing 500 U/ml GM-CSF, 50 ng/ml IL-4, and 100 U/ml human recombinant tumor necrosis factor (2.5×10^6 cells/ml). Thereafter, the suspension was inoculated into a 6-well plate at an amount of 2.0 ml/well, and the test compound was then added thereto. The mixture was cultured at 37° C. for 3 days in an incubator containing 5% carbon dioxide. Thereafter, the suspended cells were recovered. The cells were then stained with fluoroisothiocyanate-labeled mouse monoclonal antibodies reacting with MHC class I (Bechman Coulter), CD1a (Immunotech), CD40 (Pharmingen), CD80 (Pharmingen), and CD83 (Immunotech). Thereafter, mean fluorescence intensity and the ratio of positive cells were measured by flow cytometry. The expression level was calculated by the formula “the mean fluorescence intensity x the ratio of positive cells,” and the inhibition rate of the surface antigen expression level of dendritic cells was then obtained by the following formula (8).
(§3) [formula] • Eexp: Expression level of surface antigens of dendritic cells cultured in the presence of test compound • Cexp: Expression level of surface antigens of dendritic cells cultured in the absence of test compound

[4] = system: CD83; test: Expression of antigen-presenting and costimulatory molecules of human peripheral blood-derived dendritic cells: CD83; assay type: cell-based
Procedure: as §1, §2, §3

[5] = system: (C57BL/6XB6. C—H2^bml) F1 mice; test: Life-lengthening effect on graft versus host disease (GVHD); assay type: in vivo, mouse; settings: oral, once a day
Procedure: Life-Lengthening Effect on Graft Versus Host Disease (GVHD)
The present test was carried out by modification of the method of Jonathan et al. (Jonathan et al., Blood, p. 93 (1999)). First, 6.0 Gy X-ray was applied to (C57BL/6XB6. C—H2^bml) F1 mice (produced by mating 6XB6.C—H2^bml mice (Jackson Laboratory) with C57BL/6 mice (Charles River Japan); female; 8 to 12-week-old). Thereafter, CD8 positive T cells (1.25×10^6 cells) prepared from the splenic cells of C57BL/6 mice (Charles River Japan; female; 8-week-old) were intravenously injected into the above (C57BL/6XB6. C—H2^bml) F1 mice. From the day before the injection, the test compound having each diluted concentration or 0.5% carboxymethyl cellulose used as a solvent was orally administered to the mice once a day for 7 to 30 consecutive days. The day on which the transplantation was conducted was defined as day 0. Based on the median of the survival days of each group, the prolongation rate of such survival dates was calculated using the following formula (7). Thus, the effect of the test compound on GVHD was analyzed.
[formula] • Eexp: Median of survival days of test compound administration group • Cexp: Median of survival days of solvent administration group

[6] = system: MHC class II; test: Expression of antigen-presenting and costimulatory molecules of human peripheral blood-derived dendritic cells: MHC class II; assay type: cell-based
[7] = system: CD40; test: Expression of antigen-presenting and costimulatory molecules of human peripheral blood-derived dendritic cells: CD40; assay type: cell-based
Procedure: as §1, §2, §3

Structure (SMILES): CC(C)NC(=O)Nc1nc2nccc(-c3cccs3)n2n1 [Example 029, 1-isopropyl-3-(7-thiophen-2-yl[1,2,4]triazolo[1,5-a]pyrimidin-2-yl)urea]
- IC50 ([1]; 5 μg/ml concanavalin A, read-out: Lymphocyte blastogenesis IC50 (μM), ConA stimulation): 0.71 µM
- IC50 ([1]; 25 μg/ml Escherichia coli-derived lipopolysaccharide, read-out: Lymphocyte blastogenesis IC50 (μM), LPS stimulation): 0.3 µM
- Inhibition rate (%) of swelling of the sole ([2]; administration period 7 days, 50 mg/kg/single administration): 37.0%
- Inhibition rate (%) of swelling of the sole ([2]; administration period 7 days, 100 mg/kg/single administration): 49.5%
- Inhibition rate (%) of swelling of the sole ([2]; administration period 8 days, 50 × 2 (50 mg/kg, twice a day)): 80.0%
- Expression inhibition rate by test compound (%), CD80 ([3]; Analyte 1, 3 days): 83.8%
- Expression inhibition rate by test compound (%), CD80 ([3]; Analyte 2, 3 days): 12.1%
- Expression inhibition rate by test compound (%), CD80 ([3]; Analyte 3, 3 days): 26.8%
- Expression inhibition rate by test compound (%), CD83 ([4]; Analyte 1, 3 days): 62.6%
- Expression inhibition rate by test compound (%), CD83 ([4]; Analyte 2, 3 days): 88.6%
- Expression inhibition rate by test compound (%), CD83 ([4]; Analyte 3, 3 days): 42.7%
- Lengthening rate of survival days (%) ([5]; 25 mg/kg/single administration): 75%
- Lengthening rate of survival days (%) ([5]; 100 mg/kg/single administration): 200%
- Expression inhibition rate by test compound (%), MHC class II ([6]; Analyte 1, 3 days): 65.6%
- Expression inhibition rate by test compound (%), MHC class II ([6]; Analyte 2, 3 days): 93.3%
- Expression inhibition rate by test compound (%), MHC class II ([6]; Analyte 3, 3 days): 50.2%
- Expression inhibition rate by test compound (%), CD40 ([7]; Analyte 1, 3 days): 10.8%
- Expression inhibition rate by test compound (%), CD40 ([7]; Analyte 2, 3 days): −5.4%
- Expression inhibition rate by test compound (%), CD40 ([7]; Analyte 3, 3 days): 12.9%
